The text below walks through data of patent publication US11845747B2, “Ester and carbonate pyrimidine compounds as JAK kinase inhibitors” (priority 2019, dated 2023).

The target in one data set is T1, JAK1 (Homo sapiens, UniProt P23458).
T1 construct: GST; purchased Life Technologies
Nature of the data set: Biochemical LanthaScreen JAK1 kinase assay. Particulars: Km ATP 25 μM; pKi from pIC50 by Cheng-Prusoff; read-out: JAK 1 (pKi) (converted). How it is done:
(§1) Assay 1: Biochemical JAK and Tyk2 Kinase Assays A panel of four LanthaScreen JAK biochemical assays (JAK1, 2, 3 and Tyk2) were carried in a common kinase reaction buffer (50 mM HEPES, pH 7.5, 0.01% Brij-35, 10 mM MgCl2, and 1 mM EGTA). Recombinant GST-tagged JAK enzymes and a GFP-tagged STAT1 peptide substrate were obtained from Life Technologies. Serially or discretely diluted compounds were pre-incubated with each of the four JAK enzymes and the substrate in white 384-well microplates (Corning) at ambient temperature for 1 h. ATP was subsequently added to initiate the kinase reactions in 10 μL total volume, with 1% DMSO. […] Kinase reactions were allowed to proceed for 1 hour at ambient temperature before a 10 μL preparation of EDTA (10 mM final concentration) and Tb-anti-pSTAT1 ([…]) antibody (Life Technologies, 2 nM final concentration) in TR-FRET dilution buffer (Life Technologies) was added. The plates were allowed to incubate at ambient temperature for 1 h before being read on the EnVision reader (Perkin Elmer). Emission ratio signals (520 nm/495 nm) were recorded and utilized to calculate the percent inhibition values based on DMSO and background controls. For dose-response analysis, percent inhibition data were plotted vs. compound concentrations, and IC50 values were determined from a 4-parameter robust fit model with the Prism software (GraphPad Software). Results were expressed as pIC50 (negative logarithm of IC50) and subsequently converted to pKi (negative logarithm of dissociation constant, Ki) using the Cheng-Prusoff equation.
(TR-FRET usually uses a lanthanide donor and a delayed reading to cut background.)

Another data set addresses T2, JAK2 (Homo sapiens, UniProt O60674).
T2 construct: GST; purchased Life Technologies
Description: Biochemical LanthaScreen JAK2 kinase assay. Particulars: Km ATP 3 μM; pKi from pIC50 by Cheng-Prusoff; read-out: JAK 2 (pKi) (converted). How it is done: as §1

Data set [1] deals with IL-2 stimulated STAT5 phosphorylation in Tall-1 human T cell line (JAK1/3). Nature of the data set: Inhibition of IL-2 stimulated pSTAT5 in Tall-1 T cells. It counts as cell-based. Particulars: IL-2 300 ng/mL, AlphaLisa, read-out: Tall-1 IL2 pSTAT5 (pIC50) (converted). The method, then: Assay 2: Inhibition of IL-2 Stimulated pSTAT5 in Tall-1 T Cells
The potency of test compounds for inhibition of interleukin-2 (IL-2) stimulated STATS phosphorylation was measured in the Tall-1 human T cell line (DSMZ) using AlphaLisa. Because IL-2 signals through JAK1/3, this assay provides a measure of JAK1/3 cellular potency.
Phosphorylated STAT5 was measured via the AlphaLISA SureFire Ultra pSTAT5 (Tyr694/699) kit (PerkinElmer). Human T cells from the Tall-1 cell line were cultured in a 37° C., 5% CO2 humidified incubator in RPMI (Life Technologies) supplemented with 15% Heat Inactivated Fetal Bovine Serum (FBS, Life Technologies), 2 mM Glutamax (Life Technologies), 25 mM HEPES (Life Technologies) and 1× Pen/Strep (Life Technologies). Compounds were serially diluted in DMSO and dispensed acoustically to empty wells. Assay media (phenol red-free DMEM (Life Technologies) supplemented with 10% FBS (ATCC)) was dispensed (4 μL/well) and plates shaken at 900 rpm for 10 mins. Cells were seeded at 45,000 cells/well in assay media (4 μL/well), and incubated at 37° C., 5% CO2 for 1 hour, followed by the addition of IL-2 (R&D Systems; final concentration 300 ng/mL) in pre-warmed assay media (4 μL) for 30 minutes. After cytokine stimulation, cells were lysed with 6 ul of 3× AlphaLisa Lysis Buffer (PerkinElmer) containing 1× PhosStop and Complete tablets (Roche). The lysate was shaken at 900 rpm for 10 minutes at room temperature (RT). Phosphorylated STAT5 was measured via the pSTAT5 AlphaLisa kit (PerkinElmer). Freshly prepared acceptor bead mixture was dispensed onto lysate (5 μL) under green filtered <100 lux light. Plates were shaken at 900 rpm for 2 mins, briefly spun down, and incubated for 2 hrs at RT in the dark. Donor beads were dispensed (5 μL) under green filtered <100 lux light. Plates were shaken at 900 rpm for 2 minutes, briefly spun down, and incubated overnight at RT in the dark. Luminescence was measured with excitation at 689 nm and emission at 570 nm using an EnVision plate r reader (PerkinElmer) under green filtered <100 lux light.
To determine the inhibitory potency of test compounds in response to IL-2, the average emission intensity of beads bound to pSTAT5 was measured in a human T cell line. IC50 values were determined from analysis of the inhibition curves of signal intensity versus compound concentration. Data are expressed as pIC50 (negative decadic logarithm IC50) values (mean±standard deviation).
A general note: Alpha assays give light when donor and acceptor beads are brought close together.

The next data set can be described thus: physchem. The following applies: pH 7.4, aqueous buffer, thermodynamic from solid. It counts as physicochemical. How it is done:
Assay 4: Aqueous Solubility Assay The purpose of this assay was to quantify the solubility of test compounds in pH 4 and pH 7.4 PBS buffers. The assay required 40 μL of 10 mM DMSO test compound solution per desired buffer in addition to 20 μL required to make a test standard. For example, to test a compound in both buffers, 100 μL (2*40 μL+20 μL) of 10 mM DMSO compound stock solution was required. The standard was created by diluting 20 μL of 10 mM DMSO compound stock solution into 180 μL of methanol and was shaken for five minutes to ensure solution uniformity. […] This 1,000 μM solution was run on an Agilent 1260 LC-MS system by injecting 2 μL in order to obtain the peak area. For the test solutions, 40 μL of 10 mM DMSO compound stock solution, per PBS buffer condition, were dried down into a powder overnight. Once in powder form, 400 μL of the desired PBS buffer was added to the powder and allowed to shake vigorously for four hours. The maximum theoretical concentration for this sample solution was 1,000 μM. After four hours of shaking, the samples were centrifuged for 10 minutes at 3,000 RPM before injecting 2 μL on the same Agilent 1260 LC-MS system to obtain the peak area. […]

In brackets after ≈: the same amount, converted by molar mass. Bounds are passed on as bounds.

T1 sequence (P23458 whole entry): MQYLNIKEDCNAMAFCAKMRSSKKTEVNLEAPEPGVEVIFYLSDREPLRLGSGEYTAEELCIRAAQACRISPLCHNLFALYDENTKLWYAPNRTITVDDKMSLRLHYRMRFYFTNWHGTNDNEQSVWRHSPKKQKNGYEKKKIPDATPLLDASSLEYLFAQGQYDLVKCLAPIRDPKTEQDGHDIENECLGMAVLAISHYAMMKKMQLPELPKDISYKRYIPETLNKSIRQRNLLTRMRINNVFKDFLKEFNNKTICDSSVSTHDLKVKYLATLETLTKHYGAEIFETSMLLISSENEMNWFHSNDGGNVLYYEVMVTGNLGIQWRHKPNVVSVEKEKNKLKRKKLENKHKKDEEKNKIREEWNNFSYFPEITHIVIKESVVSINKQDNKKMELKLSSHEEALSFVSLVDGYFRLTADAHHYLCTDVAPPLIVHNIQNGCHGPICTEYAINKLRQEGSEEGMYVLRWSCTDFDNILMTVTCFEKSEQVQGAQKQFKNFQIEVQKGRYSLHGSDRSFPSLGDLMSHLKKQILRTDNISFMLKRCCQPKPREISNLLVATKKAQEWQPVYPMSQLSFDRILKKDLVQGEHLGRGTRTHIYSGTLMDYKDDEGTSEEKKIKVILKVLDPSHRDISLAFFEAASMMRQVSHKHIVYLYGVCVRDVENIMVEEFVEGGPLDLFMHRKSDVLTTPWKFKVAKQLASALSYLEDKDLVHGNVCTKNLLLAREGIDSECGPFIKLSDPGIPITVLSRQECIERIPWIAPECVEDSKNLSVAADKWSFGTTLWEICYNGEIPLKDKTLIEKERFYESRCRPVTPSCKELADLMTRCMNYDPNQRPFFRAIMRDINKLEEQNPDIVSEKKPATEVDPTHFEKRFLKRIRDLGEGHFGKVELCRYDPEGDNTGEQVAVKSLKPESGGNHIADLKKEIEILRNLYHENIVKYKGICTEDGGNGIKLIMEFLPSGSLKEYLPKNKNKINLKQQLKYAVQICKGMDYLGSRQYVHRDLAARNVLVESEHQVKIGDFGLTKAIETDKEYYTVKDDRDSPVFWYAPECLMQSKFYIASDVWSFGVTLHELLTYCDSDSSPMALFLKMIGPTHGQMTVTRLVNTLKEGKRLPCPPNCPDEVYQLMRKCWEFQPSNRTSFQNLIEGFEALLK
T2 sequence (O60674 whole entry): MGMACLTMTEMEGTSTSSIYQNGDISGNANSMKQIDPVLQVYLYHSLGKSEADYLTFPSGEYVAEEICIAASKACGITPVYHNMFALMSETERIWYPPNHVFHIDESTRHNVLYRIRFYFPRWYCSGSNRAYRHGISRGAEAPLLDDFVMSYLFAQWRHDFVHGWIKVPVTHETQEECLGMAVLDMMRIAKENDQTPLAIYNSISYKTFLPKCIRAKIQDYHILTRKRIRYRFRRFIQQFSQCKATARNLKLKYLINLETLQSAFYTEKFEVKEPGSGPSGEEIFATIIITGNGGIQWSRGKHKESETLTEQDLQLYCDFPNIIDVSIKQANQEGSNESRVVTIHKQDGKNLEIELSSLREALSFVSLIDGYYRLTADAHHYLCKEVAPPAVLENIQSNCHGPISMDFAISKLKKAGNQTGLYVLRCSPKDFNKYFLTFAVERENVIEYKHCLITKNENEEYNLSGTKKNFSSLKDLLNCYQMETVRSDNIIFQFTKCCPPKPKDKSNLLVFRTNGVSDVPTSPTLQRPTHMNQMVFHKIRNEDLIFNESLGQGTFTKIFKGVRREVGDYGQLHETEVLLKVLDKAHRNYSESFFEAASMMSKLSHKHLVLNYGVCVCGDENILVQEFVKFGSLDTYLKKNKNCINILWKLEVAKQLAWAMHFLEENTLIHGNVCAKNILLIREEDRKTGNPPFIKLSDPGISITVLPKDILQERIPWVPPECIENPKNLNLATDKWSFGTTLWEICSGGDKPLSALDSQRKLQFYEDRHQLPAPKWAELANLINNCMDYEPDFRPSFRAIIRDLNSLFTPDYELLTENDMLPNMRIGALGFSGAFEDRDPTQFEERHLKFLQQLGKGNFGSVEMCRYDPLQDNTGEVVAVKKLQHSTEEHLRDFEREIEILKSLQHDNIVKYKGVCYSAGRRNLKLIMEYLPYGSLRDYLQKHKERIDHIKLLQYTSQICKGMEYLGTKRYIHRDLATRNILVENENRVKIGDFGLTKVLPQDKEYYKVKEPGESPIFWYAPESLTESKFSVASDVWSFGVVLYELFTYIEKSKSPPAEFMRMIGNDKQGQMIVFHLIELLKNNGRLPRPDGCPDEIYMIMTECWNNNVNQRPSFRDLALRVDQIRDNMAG

As for `CCS(=O)(=O)N1[C@@H]2CCC[C@H]1C[C@H](N(C)c1nc(COC(C)=O)c(F)c(Nc3cc(C)[nH]n3)n1)C2` [Compound 1, (2-(((1R,3s,5S)-9-(ethylsulfonyl)-9-azabicyclo[3.3.1]nonan-3-yl)(methyl)amino)-5-fluoro-6-((5-methyl-1H-pyrazol-3-yl)amino)pyrimidin-4-yl)methyl acetate], the values for the Ki on JAK1 and at JAK2 were 0.1 to 1 nM and at most 0.1 nM, respectively. The IC50 in data set [1] was at most 10 nM. Moreover, the solubility (commonly the concentration that dissolves in the medium under given conditions) at 4 h in “physchem” fell in the range of 10 to 50 µM.

As for `CCC(=O)OCc1nc(N(C)[C@@H]2C[C@H]3CCC[C@@H](C2)N3S(=O)(=O)CC)nc(Nc2cc(C)[nH]n2)c1F` [Compound 2, (2-(((1R,3s,5S)-9-(ethylsulfonyl)-9-azabicyclo[3.3.1]nonan-3-yl)(methyl)amino)-5-fluoro-6-((5-methyl-1H-pyrazol-3-yl)amino)pyrimidin-4-yl)methyl propionate], the Ki at JAK1 is 0.1 to 1 nM. In addition, the IC50 in data set [1] was at most 10 nM. Further, the solubility at 4 h in the data set “physchem” was 10 to 50 µM (≈ 5.24 to 26.2 µg/mL).

For `CCCC(=O)OCc1nc(N(C)[C@@H]2C[C@H]3CCC[C@@H](C2)N3S(=O)(=O)CC)nc(Nc2cc(C)[nH]n2)c1F` [Compound 3, (2-(((1R,3s,5S)-9-(ethylsulfonyl)-9-azabicyclo[3.3.1]nonan-3-yl)(methyl)amino)-5-fluoro-6-((5-methyl-1H-pyrazol-3-yl)amino)pyrimidin-4-yl)methyl butyrate], the Ki on JAK1 is 0.1 to 1 nM. Further, the IC50 in data set [1] is at most 10 nM. For the same molecule, the solubility at 4 h in the data set “physchem” lay within 10 to 50 µM (≈ 5.38 to 26.9 µg/mL).

`CCCCC(=O)OCc1nc(N(C)[C@@H]2C[C@H]3CCC[C@@H](C2)N3S(=O)(=O)CC)nc(Nc2cc(C)[nH]n2)c1F` [Compound 4, (2-(((1R,3s,5S)-9-(ethylsulfonyl)-9-azabicyclo[3.3.1]nonan-3-yl)(methyl)amino)-5-fluoro-6-((5-methyl-1H-pyrazol-3-yl)amino)pyrimidin-4-yl)methyl pentanoate]: the Ki on JAK1 was 0.1 to 1 nM. Besides, the IC50 in data set [1] is at most 10 nM. Further, the solubility at 4 h in “physchem” was 50 to 100 µM (≈ 27.6 to 55.2 µg/mL).

For `CCCCCCC(=O)OCc1nc(N(C)[C@@H]2C[C@H]3CCC[C@@H](C2)N3S(=O)(=O)CC)nc(Nc2cc(C)[nH]n2)c1F` [Compound 5, (2-(((1R,3s,5S)-9-(ethylsulfonyl)-9-azabicyclo[3.3.1]nonan-3-yl)(methyl)amino)-5-fluoro-6-((5-methyl-1H-pyrazol-3-yl)amino)pyrimidin-4-yl)methyl heptanoate], the Ki on JAK1 was 1 to 10 nM. Further, the IC50 in data set [1] was at most 10 nM. The same molecule gave a solubility at 4 h in the data set “physchem” of 10 to 50 µM (≈ 5.8 to 29 µg/mL).

In the case of `CCS(=O)(=O)N1[C@@H]2CCC[C@H]1C[C@H](N(C)c1nc(COC(=O)OC3CCCCC3)c(F)c(Nc3cc(C)[nH]n3)n1)C2` [Compound 6, cyclohexyl ((2-(((1R,3s,5S)-9-(ethylsulfonyl)-9-azabicyclo[3.3.1]nonan-3-yl)(methyl)amino)-5-fluoro-6-((5-methyl-1H-pyrazol-3-yl)amino)pyrimidin-4-yl)methyl) carbonate], the Ki at JAK1 is 1 to 10 nM; on JAK2 it was 0.1 to 1 nM. The IC50 in data set [1] is 10 to 31.6 nM. In “physchem”, this molecule showed a solubility at 4 h of 10 to 50 µM (≈ 5.94 to 29.7 µg/mL).

Regarding `CCS(=O)(=O)N1[C@@H]2CCC[C@H]1C[C@H](N(C)c1nc(COC(=O)C3CCOCC3)c(F)c(Nc3cc(C)[nH]n3)n1)C2` [Compound 7, (2-(((1R,3s,5S)-9-(ethylsulfonyl)-9-azabicyclo[3.3.1]nonan-3-yl)(methyl)amino)-5-fluoro-6-((5-methyl-1H-pyrazol-3-yl)amino)pyrimidin-4-yl)methyl tetrahydro-2H-pyran-4-carboxylate], the figures for the Ki at JAK1 and on JAK2 were 0.1 to 1 nM and at most 0.1 nM, respectively. The IC50 in data set [1] is at most 10 nM. Also, in the data set “physchem”, the solubility at 4 h is 100 to 1000 µM (≈ 58 to 580 µg/mL).

On to `CCS(=O)(=O)N1[C@@H]2CCC[C@H]1C[C@H](N(C)c1nc(COC(=O)OC(C)C)c(F)c(Nc3cc(C)[nH]n3)n1)C2` [Compound 8, (2-(((1R,3s,5S)-9-(ethylsulfonyl)-9-azabicyclo[3.3.1]nonan-3-yl)(methyl)amino)-5-fluoro-6-((5-methyl-1H-pyrazol-3-yl)amino)pyrimidin-4-yl)methyl isopropyl carbonate], for which the Ki at JAK1 was 0.1 to 1 nM. Moreover, in data set [1], the IC50 is at most 10 nM. This molecule displayed a solubility at 4 h in the data set “physchem” of 50 to 100 µM (≈ 27.7 to 55.4 µg/mL).

Regarding `CCS(=O)(=O)N1[C@@H]2CCC[C@H]1C[C@H](N(C)c1nc(COC(=O)OC3CCOCC3)c(F)c(Nc3cc(C)[nH]n3)n1)C2` [Compound 9, (2-(((1R,3s,5S)-9-(ethylsulfonyl)-9-azabicyclo[3.3.1]nonan-3-yl)(methyl)amino)-5-fluoro-6-((5-methyl-1H-pyrazol-3-yl)amino)pyrimidin-4-yl)methyl (tetrahydro-2H-pyran-4-yl) carbonate], the results for the Ki on JAK1 and on JAK2 were 0.1 to 1 nM and at most 0.1 nM, respectively. Also, the IC50 in data set [1] is at most 10 nM. In “physchem”, the solubility at 4 h lay in the range of 100 to 1000 µM (≈ 59.6 to 596 µg/mL).

As for `CCS(=O)(=O)N1[C@@H]2CCC[C@H]1C[C@H](N(C)c1nc(CO)c(F)c(Nc3cc(C)[nH]n3)n1)C2` [Compound M, (2-(((1R,3s,5S)-9-(ethylsulfonyl)-9-azabicyclo[3.3.1]nonan-3-yl)(methyl)amino)-5-fluoro-6-((5-methyl-1H-pyrazol-3-yl)amino)pyrimidin-4-yl)methanol], the Ki at JAK1 and at JAK2 was at most 0.1 nM each time. Further, in data set [1], the IC50 was at most 10 nM. Moreover, in “physchem”, the solubility at 4 h was 10 to 50 µM (≈ 4.68 to 23.4 µg/mL).
